The test system of assay [1] is S. aureus 8325-4. The assay can be described thus: Minimum bactericidal concentration. The format is cell-based.
Assay [2] deals with S. aureus ATCC 49951 (MSSA). The assay is described as follows: MIC broth microdilution, S. aureus ATCC 49951. The format is cell-based. Conditions: Staphylococcus aureus, ATCC49951|MSSA, 24 h.
The subject of assay [3] is S. aureus 8325-4 (MSSA). The assay can be described thus: MIC broth microdilution, S. aureus 8325-4. The format is cell-based. Conditions: Staphylococcus aureus, MSSA, 24 h.
Assay [4] concerns the target EfFtsZ (Enterococcus faecalis, UniProt O08439). The assay is described as follows: FtsZ polymerization light-scattering. The conditions noted are these: 40 μg/mL compound or comparator drug. The format is biochemical, E. faecalis.

The MIC is the least concentration at which growth counts as inhibited. The low end stands for greater potency, the high end for weaker potency.

Chain of EfFtsZ (O08439 whole entry): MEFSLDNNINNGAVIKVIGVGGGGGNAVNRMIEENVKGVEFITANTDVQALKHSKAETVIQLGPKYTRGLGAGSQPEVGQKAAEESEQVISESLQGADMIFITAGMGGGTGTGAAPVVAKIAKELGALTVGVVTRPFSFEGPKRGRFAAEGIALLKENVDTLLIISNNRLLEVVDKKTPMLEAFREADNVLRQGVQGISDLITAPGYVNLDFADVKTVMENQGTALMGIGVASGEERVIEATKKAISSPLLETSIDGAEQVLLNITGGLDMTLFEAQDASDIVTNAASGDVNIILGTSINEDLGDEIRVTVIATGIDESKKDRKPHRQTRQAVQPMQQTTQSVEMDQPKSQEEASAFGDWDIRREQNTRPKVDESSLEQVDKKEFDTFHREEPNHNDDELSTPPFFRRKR

`CN[C@H](CC(C)C)C(=O)N[C@H]1C(=O)N[C@@H](CC(N)=O)C(=O)N[C@H]2C(=O)N[C@H]3C(=O)N[C@H](C(=O)N[C@H](C(=O)O)c4cc(O)cc(O)c4-c4cc3ccc4O)[C@H](O)c3ccc(c(Cl)c3)Oc3cc2cc(c3O[C@@H]2O[C@H](CO)[C@@H](O)[C@H](O)[C@H]2O[C@H]2C[C@](C)(N)[C@H](O)[C@H](C)O2)Oc2ccc(cc2Cl)[C@H]1O.Cl` [vancomycin] registered an MBC/MIC in assay [1] of 2. Also, the MIC in assay [2] and in assay [3] was 0.5 µg/mL in each case. Further, the “extent of stimulation of FtsZ polymerization (A340)” value in assay [4] is “negligible impact”.

These data come from paper PMC3969268 (Journal of medicinal chemistry, 2012).
